Assay results: patent US10045530B2, “Agricultural pheromone compositions comprising positional isomers” (PROVIVI, INC., priority 2015, dated 2018)
Like-named read-outs stand apart in the source and are kept apart here.

Columns and labels:
[1] = target: T1, AlkB P. putida GPo1 (Ectopseudomonas oleovorans, UniProt P12691); conditions: terminal hydroxylation; by alkane/FA chain length; cited from earlier work
T1 sequence (P12691 1-401): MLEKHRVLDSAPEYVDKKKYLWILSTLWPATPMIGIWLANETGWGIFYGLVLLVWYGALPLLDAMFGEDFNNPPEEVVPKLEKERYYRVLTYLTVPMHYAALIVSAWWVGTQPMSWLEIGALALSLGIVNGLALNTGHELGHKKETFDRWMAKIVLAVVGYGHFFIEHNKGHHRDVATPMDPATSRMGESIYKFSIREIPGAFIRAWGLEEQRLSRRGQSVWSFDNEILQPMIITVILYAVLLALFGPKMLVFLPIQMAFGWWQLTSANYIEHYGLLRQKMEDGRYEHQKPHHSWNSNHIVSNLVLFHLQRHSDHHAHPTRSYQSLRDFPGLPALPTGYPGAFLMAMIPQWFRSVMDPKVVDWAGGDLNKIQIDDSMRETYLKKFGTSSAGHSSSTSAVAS

[2] = tested on: alkB2 Gordonia sp TF6; conditions: terminal hydroxylation; 100% relative activity obtained with hexane; cited from earlier work
[3] = tested on: CYP153A16; conditions: cited from earlier work
[4] = tested on: CYP153A P. sp.; conditions: cited from earlier work
[5] = tested on: CYP153A6; conditions: cited from earlier work
[6] = tested on: CYP52A21; conditions: cited from earlier work
[7] = target: T2, CYP52A4 (Candida maltosa, UniProt P16141); conditions: terminal hydroxylation; by alkane/FA chain length; cited from earlier work
T2 sequence (P16141 1-538): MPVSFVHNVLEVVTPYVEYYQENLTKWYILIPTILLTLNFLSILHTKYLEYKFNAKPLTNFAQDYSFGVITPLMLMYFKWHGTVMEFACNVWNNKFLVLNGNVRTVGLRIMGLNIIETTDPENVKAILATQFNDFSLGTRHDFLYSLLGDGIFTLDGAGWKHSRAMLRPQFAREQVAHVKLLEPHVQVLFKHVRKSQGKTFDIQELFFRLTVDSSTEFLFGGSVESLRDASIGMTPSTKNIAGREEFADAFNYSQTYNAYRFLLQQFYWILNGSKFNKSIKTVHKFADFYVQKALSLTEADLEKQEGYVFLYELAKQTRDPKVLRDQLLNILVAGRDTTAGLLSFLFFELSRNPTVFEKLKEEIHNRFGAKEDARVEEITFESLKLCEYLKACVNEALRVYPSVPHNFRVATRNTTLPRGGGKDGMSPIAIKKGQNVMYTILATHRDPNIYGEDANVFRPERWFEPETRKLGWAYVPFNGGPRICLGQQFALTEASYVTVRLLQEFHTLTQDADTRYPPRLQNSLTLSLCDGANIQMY

[8] = target: T3, CYP52A3 (Candida maltosa, UniProt P16496); conditions: terminal hydroxylation; by alkane/FA chain length; cited from earlier work
T3 sequence (P16496 2-523 limits assumed): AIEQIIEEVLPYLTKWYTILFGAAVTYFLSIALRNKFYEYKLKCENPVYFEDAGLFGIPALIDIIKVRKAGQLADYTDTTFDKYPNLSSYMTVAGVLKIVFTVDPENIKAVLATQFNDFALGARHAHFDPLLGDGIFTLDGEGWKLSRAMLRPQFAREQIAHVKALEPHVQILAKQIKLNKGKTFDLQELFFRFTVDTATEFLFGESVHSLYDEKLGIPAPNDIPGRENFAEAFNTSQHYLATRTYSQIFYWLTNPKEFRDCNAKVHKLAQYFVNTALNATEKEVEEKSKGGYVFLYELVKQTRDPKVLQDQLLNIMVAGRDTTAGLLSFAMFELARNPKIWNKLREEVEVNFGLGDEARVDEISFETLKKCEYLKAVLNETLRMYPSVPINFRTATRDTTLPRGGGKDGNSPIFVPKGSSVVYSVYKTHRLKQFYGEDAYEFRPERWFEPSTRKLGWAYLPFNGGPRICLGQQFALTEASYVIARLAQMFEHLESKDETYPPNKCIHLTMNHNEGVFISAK

[9] = target: T4, LadA (Geobacillus thermodenitrificans, UniProt A4IU28); conditions: terminal hydroxylation; by alkane/FA chain length; cited from earlier work
T4 sequence (A4IU28 1-440): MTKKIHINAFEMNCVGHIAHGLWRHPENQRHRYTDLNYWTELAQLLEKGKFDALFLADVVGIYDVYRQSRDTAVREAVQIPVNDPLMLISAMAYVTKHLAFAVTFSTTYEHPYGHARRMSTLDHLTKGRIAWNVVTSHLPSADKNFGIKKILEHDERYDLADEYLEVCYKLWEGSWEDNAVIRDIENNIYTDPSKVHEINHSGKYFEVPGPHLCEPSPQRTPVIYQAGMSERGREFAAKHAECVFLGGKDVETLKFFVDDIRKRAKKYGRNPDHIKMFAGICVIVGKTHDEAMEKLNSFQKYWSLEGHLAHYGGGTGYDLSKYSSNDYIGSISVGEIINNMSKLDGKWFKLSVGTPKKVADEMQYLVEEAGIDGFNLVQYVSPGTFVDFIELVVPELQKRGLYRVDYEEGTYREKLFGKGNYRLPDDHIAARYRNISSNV

[10] = tested on: Helicoverpa zea; experiment: Wind tunnel bioassay: upwind flight and lure location of male moths; type: in vivo; conditions: conclusions from 8.1-8.2
Protocol: Four separate experiments were conducted with the moth Helicoverpa zea and its respective pheromone components (Z-11-hexadecenal, Z-9-hexadecenal). Further, the addition of Z-5-hexadecenal, the positional isomer of the natural insect Z-11-hexadecenal pheromone, was also added to the Z-11 and Z-9 blends and tested. Upwind flight and lure location of male moths were compared for: natural ratios of pheromone (97% Z-11-hexadecenal with 3% of Z-9-hexadecenal) with and without addition of the Z-5-hexadecenal positional isomer at various ratios.
Moths (4-6 day-old males in second half of scotophase) were flown in a glass wind tunnel (120×30×30 cm). A fan pushed air into the wind tunnel at 0.4 m sec^−1 and a second fan exhausted air at a similar rate. To provide visual cues for navigation, the floor was covered with light colored construction paper on which small (2-5 cm) circles were drawn with marker (Experiment 1) or light colored circles that were cut from light colored construction paper were placed on the floor (Experiments 2-4). Lures were made with Soxhlet-extracted, grey-rubber septa from West. […]
A moth in a release cage was held on a platform 20 cm above the floor for 15 s in the plume of pheromone and then released by turning open end of the cage toward upwind. […] Flights were recorded on video and data were collected from videos. […]

[11] = terminal hydroxylation, by alkane/FA chain length

SMILES | Relative activity, alkB2 Gordonia sp TF6 (Fujii et al., 2004, Biosci. Biotechnol. Biochem. 68: 2171-2177) [2] [%] | Relative activity, CYP52A4 (Scheller et al., 1996, Arch. Biochem Biophys. 328: 245-254) [7] | Relative activity, CYP52A3 (Scheller et al., 1996, Arch. Biochem Biophys. 328: 245-254) [8] | Relative activity, LadA (Feng et al., 2007, Proc. Natl. Acad. Sci. U.S.A. 104: 5602-5607) [9] | further results
CCCCCCCC [C8] | 72 | – | – | – | Relative activity, AlkB P. putida GPo1 (Vanbeilen et al., 1994, Enzyme Microb. Technol. 16: 904-911) [1]: 95; Relative activity, CYP153A16 (Scheps et al., 2011, Org. Biomol. Chem. 9: 6727-6733) [3]: 100; Relative activity, CYP153A P. sp. (Scheps et al., 2011, Org. Biomol. Chem. 9: 6727-6733) [4]: 100; Relative activity, CYP153A6 (Funhoff et al., 2006, J. Bacteriol. 188: 5220-5227) [5]: 100
CCCCCCCCC [C9] | 63 | – | – | – | Relative activity, AlkB P. putida GPo1 (Vanbeilen et al., 1994, Enzyme Microb. Technol. 16: 904-911) [1]: 100; Relative activity, CYP153A16 (Scheps et al., 2011, Org. Biomol. Chem. 9: 6727-6733) [3]: 29; Relative activity, CYP153A P. sp. (Scheps et al., 2011, Org. Biomol. Chem. 9: 6727-6733) [4]: 69; Relative activity, CYP153A6 (Funhoff et al., 2006, J. Bacteriol. 188: 5220-5227) [5]: 82
CCCCCCCCCC [C10] | 66 | – | – | – | Relative activity, AlkB P. putida GPo1 (Vanbeilen et al., 1994, Enzyme Microb. Technol. 16: 904-911) [1]: 60; Relative activity, CYP153A16 (Scheps et al., 2011, Org. Biomol. Chem. 9: 6727-6733) [3]: 13; Relative activity, CYP153A P. sp. (Scheps et al., 2011, Org. Biomol. Chem. 9: 6727-6733) [4]: 60; Relative activity, CYP153A6 (Funhoff et al., 2006, J. Bacteriol. 188: 5220-5227) [5]: 23
CCCCCCCCCCC [C11] | 48 | – | – | – | Relative activity, AlkB P. putida GPo1 (Vanbeilen et al., 1994, Enzyme Microb. Technol. 16: 904-911) [1]: 6; Relative activity, CYP153A16 (Scheps et al., 2011, Org. Biomol. Chem. 9: 6727-6733) [3]: <8; Relative activity, CYP153A P. sp. (Scheps et al., 2011, Org. Biomol. Chem. 9: 6727-6733) [4]: <6; Relative activity, CYP153A6 (Funhoff et al., 2006, J. Bacteriol. 188: 5220-5227) [5]: 1
CCCCCCCCCCCC(=O)O [C12 FA (lauric)] | – | 100 | 20 | – | Relative activity, CYP52A21 (Kim et al., 2007, Arch. Biochem. Biophys. 464: 213-220) [6, 11]: 100
CCCCCCCCCCCC [C12] | 34 | 37 | 41 | – | –
CCCCCCCCCCCCCC(=O)O [C14 FA (Myristic)] | – | – | – | – | Relative activity, CYP52A21 (Kim et al., 2007, Arch. Biochem. Biophys. 464: 213-220) [6]: 86
CCCCCCCCCCCCCCC [C15] | – | – | – | 83 | –
CCCCCCCCCCCCCCCC(=O)O [C16 FA (Palmetic)] | – | 18 | 35 | – | Relative activity, CYP52A21 (Kim et al., 2007, Arch. Biochem. Biophys. 464: 213-220) [6, 11]: 29
CCCCCCCCCCCCCCCC [C16] | – | 33 | 100 | 100 | –
CCCCCCCCCCCCCCCCCC(=O)O [C18 FA (Stearic)] | – | 1 | 30 | – | –
CCCCCCCCCCCCCCCCCC [C18] | – | 20 | 48 | 78 | –
CCCCCCCCCCCCCCCCCCCCCC [C22] | – | – | – | 74 | –
CCCCCCCCCCCCCCCCCCCCCCCC [C24] | – | – | – | 65 | –
CCCCCCCCCC/C=C\CCCC=O [Z-5-hexadecedenal, Z-5-hexadecenal] | – | – | – | – | upwind flight response [10]: triggers a similar upwind flight response
